The text below walks through data of patent publication US8404646B2, “Methods for preventing or treating mitochondrial permeability transition” (Cornell Research Foundation, Inc., priority 2003, dated 2013).

The nature of data set [1]: Body weight and heart rate during the infarction/reperfusion experiment. Format: in vivo, rat. The protocol: Adult male […] rats (F344 strain, National Institute of Aging, maintained by Harian Sprague-Dawley Inc.), weighting between 285 and 425 gm, were used. Twenty-four rats (n=8/group) were randomly assigned to one of three groups: (1) Control group was given 0.4 ml of saline as an intra-peritoneal (IP) injection 30 minutes before the ligation of left anterior descending coronary artery, followed by same IP dose injection 5 minutes before reperfusion; (2) SS-31 group was treated with SS-31 (3 mg/kg dissolved in 0.4 ml of saline) as an IP injection 30 minutes before the ligation followed by same IP dose injection as maintenance 5 minutes before reperfusion; and (3) SS-20 group was treated with SS-20 (3 mg/kg dissolved in 0.4 ml of saline) as an IP injection 30 minutes before the ligation followed by same dose IP injection as maintenance just 5 minutes before reperfusion. Also, Sham-operated rats (n=3) were used to account for possible effects related to the surgical protocol. All procedures were performed in a blinded manner, with the groups assigned letters and their identities unknown to the operators. Likewise, the two independent investigators analyzing the data were blind to the treatment assignments.
After anesthesia with ketamine (90 mg/kg IP) and xylazine (4 mg/kg IP), a tracheotomy was performed, and the rat was intubated with polyethylene tube and ventilated (Harvard Rodent Ventilator model 683) with room air and a tidal volume of 0.65 ml/100 gm of body weight at 90 breaths per minute. Body temperature was maintained at 37° C. by using a heated operating table. The internal jugular vein was surgically exposed and a polyethylene tube was inserted for Evans blue dye solution injection. Peripheral limb electrodes were inserted subcutaneously and electrocardiogram was monitored throughout the procedure.
An ECG was recorded continuously from a standard lead II (AC AMP 700) inserted into the limbs of all rats. The ECG was printed at 25 mm/second. The cardiac arrhythmias were monitored and assessed in accordance with the Lambeth Convention. The assessment was performed in a blinded manner using the original paper recordings. A validated score was used to quantify the severity of cardiac arrhythmias. The score consisted of six types: 0, no ventricular extrasystoles (VES), ventricular tachycardia (VT) or ventricular fibrillation (VF); 1=VES; 2=one to five episodes of VT (more than four coupled VES); 3=more than five episodes of VT and/or one VF; 4=two to five episodes of VF; 5=more than five episodes of VF.
All values are expressed as mean±standard error of mean (S.E.M.). Statistical analyses were performed using SPSS version 10. Differences among groups in body weight, heart rate, arrhythmia, area at risk as a percentage of the left ventricle, and area of infarction as a percentage of the area at risk were analyzed using ANOVA. If significant differences were detected, comparisons between the control group and the 2 treatment groups were conducted using the Mann-Whitney U-test. A two-tailed p<0.05 was regarded as significant.

For a further data set, the system named is Caco-2 cells. As to the kind of experiment: Confocal laser scanning microscopy of fluorescent analogs (uptake, subcellular distribution). Type of data set: cell-based, human. To be noted: for subcellular distribution of fluorescence: Caco-2, CLSM. The protocol: The uptake of [Dmt^1]DALDA into Caco-2 cells was confirmed by confocal laser scanning microscopy (CLSM) using a fluorescent analog of [Dmt^1]DALDA (Dmt-D-Arg-Phe-dnsDap-NH2; where dnsDap=β-dansyl-1-α,β-diaminopropionic acid). Cells were grown as described above and were plated on (35 mm) glass bottom dishes (MatTek Corp., Ashland, Mass.) for 2 days. The medium was then removed and cells were incubated with 1 ml of HBSS containing 0.1 μM to 1.0 μM of the fluorescent peptide analog at 37° C. for 1 h. Cells were then washed three times with ice-cold HBSS and covered with 200 μl of PBS, and microscopy was performed within 10 min at room temperature using a Nikon confocal laser scanning microscope with a C-Apochromat 63×/1.2 W corr objective. Excitation was performed at 340 nm by means of a UV laser, and emission was measured at 520 nm. For optical sectioning in z-direction, 5-10 frames with 2.0 μm were made.
To examine the subcellular distribution of [Dmt^1]DALDA, the fluorescent analog, [Dmt^1, AtnDap^4]DALDA (Dmt-D-Arg-Phe-atnDap-NH2; where atn=β-anthraniloyl-1-α,β-diamino-propionic acid), was prepared. The analog contained β-anthraniloyl-1-α,β-diaminopropionic acid in place of the lysine reside at position 4. The cells were grown as described in Example 1 and were plated on (35 mm) glass bottom dishes (MatTek Corp., Ashland, Mass.) for 2 days. The medium was then removed and cells were incubated with 1 ml of HBSS containing 0.1 μM of [Dmt^1, AtnDap^4]DALDA at 37° C. for 15 min to 1 h.
Cells were also incubated with tetramethylrhodamine methyl ester (TMRM, 25 nM), a dye for staining mitochondria, for 15 min at 37° C. Cells were then washed three times with ice-cold HBSS and covered with 200 μl of PBS, and microscopy was performed within 10 min at room temperature using a Nikon confocal laser scanning microscope with a C-Apochromat 63×/1.2 W corr objective.
For [Dmt^1, AtnDap^4]DALDA, excitation was performed at 350 nm by means of a UV laser, and emission was measured at 520 nm. For TMRM, excitation was performed at 536 nm, and emission was measured at 560 nm.

In data set [2] the test system is isolated mouse liver mitochondria. As to the kind of experiment: Uptake into isolated mitochondria (fluorescence quenching, radioactivity in pellet). Type of data set: in vitro ADME. On the procedure: (FIG. 1A) Mitochondrial uptake of SS-19 was determined using fluorescence spectrophotometry (ex/em=320/420 nm). […] Pretreatment of mitochondria with FCCP (1.5 μM) reduced quenching by <20% (black line). […] Uptake was stopped by centrifugation (16000×g) for 5 min at 4° C., and radioactivity determined in the pellet. […] Data are shown as mean±s.e.; n=3. *, P<0.05 by Student's t-test. […] Black line, TMRM; red line, SS-19.
To isolate mitochondria from mouse liver, mice were sacrificed by decapitation. The liver was removed and rapidly placed into chilled liver homogenization medium. The liver was finely minced using scissors and then homogenized by hand using a glass homogenizer.
The homogenate was centrifuged for 10 min at 1000×g at 4° C. The supernatant was aspirated and transferred to polycarbonate tubes and centrifuged again for 10 min. at 3000×g, 4° C. The resulting supernatant was removed, and the fatty lipids on the side-wall of the tube were carefully wiped off.
The pellet was resuspended in liver homogenate medium and the homogenization repeated twice. The final purified mitochondrial pellet was resuspended in medium. Protein concentration in the mitochondrial preparation was determined by the Bradford procedure.
Approximately 1.5 mg mitochondria in 400 μl buffer was incubated with [^3H][Dmt^1]DALDA for 5-30 min at 37° C. The mitochondria were then centrifuged down and the amount of radioactivity determined in the mitochondrial fraction and buffer fraction. […] Thus [Dmt^1]DALDA is concentrated in mitochondria.
Thus uptake of [Dmt^1, AtnDap^4]DALDA was not potential-dependent.
To confirm that the mitochondrial targeting was not an artifact of the fluorophore, we also examined mitochondrial uptake of [^3H][Dmt^1]DALDA. Isolated mitochondria were incubated with [^3H][Dmt^1]DALDA and radioactivity determined in the mitochondrial pellet and supernatant.
We next examined the effect of mitochondrial swelling on the accumulation of [Dmt^1, AtnDap^4]DALDA in mitochondria by using alamethicin to induce swelling and rupture of the outer membrane. […] Thus, [Dmt^1]DALDA is associated with mitochondrial membranes.

Non-standard residues stand in square brackets, D forms with d. Residues, ends and D or L forms follow the SMILES beside them. *: point of attachment. Dansyl = CN(C)c1cccc2c(S(=O)(=O)*)cccc12; Dmt = Cc1cc(O)cc(C)c1C[C@H](N)C(=O)O; Dap = NC[C@H](N)C(=O)O

As for `N=C(N)NCCC[C@@H](NC(=O)[C@@H](N)Cc1ccccc1)C(=O)N[C@@H](Cc1ccccc1)C(=O)N[C@@H](CCCCN)C(N)=O` [SS-20, Phe-D-Arg-Phe-Lys-NH2] (H-F[dR]FK-NH2; N-terminus assumed), the “Heart Rate Baseline” value in data set [1] (Baseline) turned out to be 255 ± 5. In data set [1] (first column), the “Heart Rate Ischemia” value is 191 ± 17 and the “Heart Rate Reperfusion” value is recorded as 182 ± 16. Moreover, in data set [1] (second column), the “Heart Rate Ischemia” value was 184 ± 15 and the “Heart Rate Reperfusion” value came out at 183 ± 12. In addition, the “Heart Rate Open chest” value in data set [1] (Open chest) is recorded as 211 ± 10.
On to `Cc1cc(O)cc(C)c1C[C@H](N)C(=O)N[C@H](CCCNC(=N)N)C(=O)N[C@@H](Cc1ccccc1)C(=O)N[C@@H](CNS(=O)(=O)c1cccc2c(N(C)C)cccc12)C(N)=O` [[Dmt^1,DnsDap^4]DALDA, Dmt-D-Arg-Phe-dnsDap-NH2] (H-[Dmt][dR]F[Dap](Dansyl)-NH2; N-terminus assumed), for which the “uptake of fluorescent peptide into Caco-2 cells (CLSM)” value in the data set on Caco-2 cells (0.1 μM, 1 h, 37° C.) is on record as “confirmed the uptake”. For the same compound, the “subcellular distribution of fluorescence” value in the data set with Caco-2 cells is given as “diffuse throughout the cytoplasm but was completely excluded from the nucleus”.
With Dmt-D-Arg-Phe-atnDap-NH2 [SS-19], in data set [2] (FCCP 1.5 μM, mitochondria 0.35 mg/ml), the “reduction of uptake (fluorescence quenching) by FCCP pretreatment” value is less than 20%. In addition, the “effect of alamethicin-induced mitochondrial swelling on uptake” value was “retained to a large extent” in data set [2] and “only partially reversed” in data set [2] (listed as [Dmt^1, AtnDap^4]DALDA). Besides, the “uptake on addition of mitochondria (fluorescence)” value in data set [2] (ex/em 320/420 nm) is listed as “immediate quenching”. In addition, the “incubation time after which uptake into Caco-2 cells was shown” value with Caco-2 cells (0.1 μM, 37° C.) stood at 15 min. Also, the “subcellular distribution of fluorescence” value in the data set with Caco-2 cells is on record as “completely excluded from the nucleus”. The “distribution to mitochondria (overlap with TMRM)” value in the data set on Caco-2 cells (Caco-2, TMRM 25 nM) is “demonstrated by the overlap”.
